In data set [1] the test system is Unc119 KO HBG4 cells. Nature of the data set: Insulin-stimulated GLUT4 translocation in Unc119 KO HBG4 cells. It counts as cell-based, mouse. The method, then:
(§1) Unc119 and Unc119b are important for the insulin sensitizing effect of C59. After identifying Unc119 proteins as molecular targets for C59, it was tested whether those proteins were responsible for the insulin sensitizing activity of C59. To this end Unc119 and Unc119b KO HBG4 cells were generated using CRISPR/Cas9 technology. For each of those cell lines two gRNA surrounding the start codon were used, thus resulting in a deletion of a fragment of the Unc119 genes that includes the ATG. Deletion of Unc119 and Unc119b in clonal cell lines were screened and verified by PCR (FIG. 4E). The effect of C59 on insulin-stimulated. […] To further test this finding, 3H-Deoxy-D-Glucose uptake in WT, Unc119 KO and Unc119b KO HBG4 cells treated with vehicle, insulin, C59 alone and C59 with insulin was measured.

In data set [2] the test system is GLUT4 translocation in C2C12 myoblast cell line stably expressing HiBiT-GLUT4 (HBG4). Nature of the data set: HiBiT (NanoBit) luminescence GLUT4 translocation assay in HBG4 C2C12 cells. In kind it is cell-based, mouse. An excerpt:
An assay was used to identify potentiators of insulin-stimulated GLUT4 translocation. In one embodiment, the assay employs Nanobit technology. This technology is based on the recombination of two complementary fragments, HiBiT and LgBiT, of the Nanoluc luciferase. HiBit was fused to an extracellular region of GLUT4 to allow for the rapid quantitation of its the surface density in live cells by adding the reconibinantly produced complementary fragment LgBiT and the luciferase substrate. Since LgBiT is not membrane permeant, only proteins at the plasma membrane are quantified. To measure GLUT4 translocation, a stable C2C12 myoblast cell line was prepared by expressing a HiBiT-tagged mouse GLUT4. […] The Chembridge Diverset library of 49,600 compounds was screened and 1264 hits were identified. A subset of those hits were selected and retested in the presence and absence of insulin.
Development of a HTS assay for real-time measurement of GLUT4 translocation. To measure GLUT4 translocation in a homogenous and HIS amenable manner, NanoBit technology was used. This technology relies on the rapid recombination of 2 fragments of the Nanoluc luciferase (HiBit and LgBiT) with high affinity for each other. Fragments have no enzymatic activity on their own but generate a bright luminescent signal when recombined. A C2C12 myoblast cell line was prepared that stably expressed HiBiT-GLUT4 (HBG4), in which the small 11 amino acid HiBiT fragment was inserted into the first extracellular loop of GLUT4. A C-terminal mCherry was also added for microscopic detection. The C2C12 line was chosen as an in vitro model because it is derived from skeletal myoblasts and translocate GLUT4 in response to insulin. Detection of plasma membrane density of HBG4 is achieved by adding recombinant LgBit and substrate to live cells. The assay can be conducted as an endpoint where cells are incubated with insulin before measuring luminescence or as a kinetic assay by adding LgBiT and substrate at the beginning of the experiment and monitor real-time insulin-stimulated GLUT4 translocation.
An assay to measure GLUT4 translocation in a homogenous and HIS amenable manner using NanoBit technology was developed. This technology relies on the rapid recombination of 2 fragments of the Nanoiuc luciferase (HiBit and LgBiT) with high affinity for each other. Fragments have no enzymatic activity on their own but generate a bright luminescent signal when recombined. A C2C12 myoblast cell line stably expressing HiBiT-GLUT4 (HBG4), in which the small 11 amino acid HiBiT fragment was inserted into the first extracellular loop of GLUT4 was prepared. A C-terminal mCherry was also added for microscopic detection (FIGS. 1A and B). The C2C12 line was chosen as an in-vitro model because it is derived from skeletal myoblasts and translocates GLUT4 in response to insulin. Detection of plasma membrane density of HBG4 is achieved by adding recombinant LgBit and substrate to live cells (FIG. 1C). The assay can be conducted as a kinetic assay by adding LgBiT and substrate at the beginning of the experiment and monitoring real-time insulin-stimulated GLUT4 translocation (FIGS. 1D and E).
On the technique in general: HiBiT is a short tag that completes a luciferase, so light tracks the accessible tagged protein.

Data set [3] concerns Unc119 KO HBG4 cells. In words: 3H-Deoxy-D-Glucose uptake in Unc119 KO HBG4 cells. It counts as cell-based, mouse. As for the experimental part: as §1
The target of the next data set is T1, Unc119 (Homo sapiens, UniProt Q13432).
T1 construct: expressed in transfected cells
Nature of the data set: Luminescence complementation based thermal shift assay, Unc119-HiBiT. The conditions noted are these: crude extract of Unc119-HiBiT transfected cells, 10 minutes incubation, heated 3 minutes. It counts as binding. An excerpt:
(§2) Identification of the molecular target of C59. Since the discovery of C59 as an insulin sensitizer was achieved using a phenotypic screen, the molecular target of the compound was unknown. To identify the target, a Proteome Integral Solubility Alteration (PISA) assay was used. […] To measure the shift in thermal stability, constructs coding for Unc119-HiBiT and Unc119b-HiBit were generated, thus allowing the quantitative detection of those proteins by adding LgBiT and furimazin to the lysates and measuring luminescence. Crude extract from cells transfected with Unc119-HiBiT or Unc119b-HiBiT, were incubated with DMSO or C59 for 10 minutes, aliquoted, heated for 3 minutes at the indicated temperature and allowed to cool down to room temperature before adding LgBiT and furimazin and reading luminescence on a plate reader.

Data set [4] has as its system diet-induced obese (DIO) mice. In words: Glucose tolerance, fasting glucose and insulin in diet-induced obese (DIO) insulin-resistant mice. It counts as in vivo, mouse. The conditions noted are these: DIO mice, C59 treatment. The method, then: To test whether C3 improves glucose handling, WT mice were made insulin-resistant by feeding them a high fat diet (HFD) for a period of 10 weeks. After 10 weeks, mice were injected with vehicle. C3 (20 mg/kg), or the TZD rosiglitazone (20 mg/kg) for 2 weeks while remaining on the HFD. […] To further test the in vivo efficacy of C3, a glucose tolerance test (GTT) was perfromed.
To test whether C3 improves glucose handling, lean mice were injected with vehicle or C3 30 minutes before performing a glucose tolerance test. […] To further determine if C3 can reverse glucose intolerance, WT mice were made insulin-resistant by feeding them a high fat diet (HFD) for a period of 10 weeks. Diet induced obese (DIO) mice were then injected with vehicle or C3 for 2 weeks while remaining on HFD.

Data set [5] is described as follows: Solubility in aqueous solution. In kind it is physicochemical. The conditions noted are these: compared with C3.
For another data set, the system named is WT HBG4 cells. In words: 3H-Deoxy-D-Glucose uptake in WT HBG4 cells. It counts as cell-based, mouse. The method, then:
as §1

For a further data set, the target named is T2, Unc119b (Homo sapiens, UniProt A6NIH7).
T2 construct: expressed in transfected cells
T2 sequence (A6NIH7 whole entry, species assumed): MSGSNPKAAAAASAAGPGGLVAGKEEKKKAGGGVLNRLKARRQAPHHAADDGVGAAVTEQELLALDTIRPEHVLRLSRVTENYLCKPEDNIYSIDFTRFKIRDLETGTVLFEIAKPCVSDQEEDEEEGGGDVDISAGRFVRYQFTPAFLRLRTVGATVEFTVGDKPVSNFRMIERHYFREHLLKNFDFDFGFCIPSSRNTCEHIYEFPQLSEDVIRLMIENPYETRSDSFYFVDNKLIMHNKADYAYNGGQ
Nature of the data set: Luminescence complementation based thermal shift assay, Unc119b-HiBiT. The conditions noted are these: crude extract of Unc119b-HiBiT transfected cells, 10 minutes incubation, heated 3 minutes. It counts as binding.
Source text: as §2

“Also recorded” adds a separate entry of the source.

As to `O=C(Nc1ccc(Cl)c(Cl)c1)C12CC3CC(CC(C3)C1)C2` [Compound C59], the “insulin-stimulated GLUT4 translocation” value with Unc119 KO HBG4 cells [1] is given as “failed to enhance”; in data set [2] (in the presence of insulin, WT HBG4 C2C12 cells), “enhanced; also recorded: retained activity; also recorded: increased”. For the same compound, the EC50 in data set [2] (Mus musculus, HBG4 C2C12 cells, with insulin, read-out: potency (enhancement of insulin effect on GLUT4 translocation)) was 2500 nM. For the same compound, the “efficacy compared with C3” value in data set [2] (enhancement of insulin effect on GLUT4 translocation) was “higher; also recorded: improved efficacy”. Besides, the “3H-Deoxy-D-Glucose uptake, compound alone” value with Unc119 KO HBG4 cells [3] (no insulin) and with WT HBG4 cells (no insulin) was “did not stimulate” each time. The “insulin stimulated 3H-Deoxy-D-Glucose uptake” value in the data set with Unc119 KO HBG4 cells [3] (with insulin) is “failed to do so”; in the data set on WT HBG4 cells (with insulin) it was “significantly increased”. For the same compound, the “thermostability shift for Unc119” value at Unc119 is reported as 6.6 C. Also, the “glucose handling in DIO mice” value in data set [4] is recorded as “drastically improves”. Moreover, the “solubility in aqueous solution” value in data set [5] is listed as “improved solubility”. Besides, at Unc119b, the “thermostability shift for Unc119b” value was 6.7 C.

Values taken from US20230295088A1, “INSULIN SENSITIZERS FOR THE TREATMENT OF DIABETES MELLITUS” (University of Iowa Research Foundation, priority 2020, published 2023).
